Test results reported in patent US20250170121A1, “ISOQUINOLINONE COMPOUND, AND PREPARATION METHOD AND USE THEREFOR” (FUDAN UNIVERSITY, priority 2022, published 2025).

How the values were obtained:
FABP3 = FABP3 (Homo sapiens, UniProt P05413); assay: FABP3 inhibition rate, ANS substrate competition method (illustrated by the FABP4 system); assay type: binding; details: compound 25 μM
From the text: (§1) Considering that inhibition of FABP3 would cause myocardial function damage and bring potential safety issues, we tested the inhibitory activity of some compounds on FABP3. The activity test is illustrated by the example of the FABP4 activity test system as below.
(§2) Experimental principle and method: Once the free non-covalent fluorescent probe ANS binds to FABP4, the ANS fluorescence intensity will increase and its spectrum will be blue shifted. In this experiment, the inhibitory effect of the compound on FABP4 was evaluated by measuring the change in the ANS fluorescence signal value. For the FABP4 inhibitory activity test, the ANS substrate competition method was used, and we used the method of Kane and Bernlohr (E. Marr, M. Tardie, M. Carty, T. Brown Phillips, I. K. Wang, W. Soeller, X. Qiu, G. Karam, Expression, purification, crystallization and structure of human adipocyte lipid-binding protein (aP2). Acta Crystallogr., Sect. F: Struct. Biol. Cryst. Commun. 62 (2006) 1058-1060.). Human FABP4 with a His tag was expressed in the BL21 (DE3) strain and then purified using a Ni column with a His tag to generate the protein. In the detection system, the concentration of 1,8-ANS substrate was 10 μM, the final concentration of FABP4 was 10 μM, and then the compound prepared by the present invention was added at the required concentration for incubation for 3 minutes, and finally the fluorescence signal was detected at an excitation wavelength (EX) of 370 nm/emission wavelength (EM) of 470 nm. The inhibition rate (%) of the test sample on FABP4 was calculated according to the fluorescence absorption value of the system. The inhibition rate (%) was calculated according to the following equation: […]
(§3) FX represents the fluorescence value (fluorescence, F) of the system measured in the presence of compound x;
(§4) Fbackground represents the fluorescence value of the fluorescent substrate ANS;
(§5) F0% represents the fluorescence value of the system when the inhibition rate is 0%, that is, when no compound was added.

[1] = test system: IL-6 secretion in THP-1 cells; assay: IL-6 secretion in LPS-stimulated THP-1 monocyte-derived macrophages (ELISA); assay type: cell-based; details: FIG. 3
From the text: (§6) In FIG. 3, the vertical axis represents the amount (ng) of MCP-1 contained in each mg of cell protein. Wherein, Control (Con) represents blank control treatment, LPS represents lipopolysaccharide treatment, BMS309403 represents inhibitor positive control treatment, RO6806051 (RO) represents lead compound treatment, and Y2, Y3, Y15, Y16 and Y18 represent treatments with compounds Y2, Y3, Y15, Y16 and Y18 prepared in the present invention, respectively.
(§7) Effects of the compounds on monocyte chemoattractant factor-1 (MCP-1) and interleukin-6 (IL-6) in THP-1 monocyte-derived macrophage.
(§8) First, monocytic cell line THP-1 in logarithmic growth phase was plated on a 96-well plate at a cell density of 5*10^5/ml; then 100 nM phorbol myristate ester (PMA) was added to induce the cells for 24 hours to differentiate into macrophages; then the cells were washed once or twice with phosphate buffered saline (PBS), and different concentrations of compounds (5, 10, 25 μM) were added for incubation for 18 hours; finally, after 6 hours of stimulation with 100 ng/ml lipopolysaccharide (LPS), the supernatant was collected and diluted to a certain multiple and the contents of MCP-1 and IL-6 were detected using enzyme-linked immunosorbent assay (ELISA), and cell protein was collected and the protein concentration was measured by BCA method for calibration.

FABP5 = FABP5 (Homo sapiens, UniProt Q01469); assay: FABP5 inhibition rate, ANS substrate competition method (illustrated by the FABP4 system); assay type: binding; details: compound 25 μM
FABP5, sequence (Q01469 whole entry): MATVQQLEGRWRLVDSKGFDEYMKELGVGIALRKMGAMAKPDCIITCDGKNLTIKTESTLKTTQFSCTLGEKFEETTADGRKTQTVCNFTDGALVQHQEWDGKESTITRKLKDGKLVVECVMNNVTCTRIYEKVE

Human FABP4 = target: T1, Human FABP4 (Homo sapiens, UniProt P15090); assay: FABP4 inhibition rate, ANS substrate competition (fluorescence) method; assay type: binding; details: compound 25 μM; 10 μM 1,8-ANS, 10 μM FABP4
T1 construct: His tag; made in house; host or cells: E. coli BL21 (DE3)
T1 sequence (P15090 whole entry): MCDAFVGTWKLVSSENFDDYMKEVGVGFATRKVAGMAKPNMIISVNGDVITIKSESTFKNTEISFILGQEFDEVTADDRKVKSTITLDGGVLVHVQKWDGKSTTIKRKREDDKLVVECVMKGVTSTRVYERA
From the text: as §1, §2, §3, §4, §5

3T3-L1 cells = assay: Lipolysis inhibition in differentiated mature 3T3-L1 adipocytes (supernatant glycerol, forskolin stimulation); assay type: cell-based; details: 80 μM compound, 24 h incubation, 20 μM forskolin 2 h; FIG. 1
Description: In this example, the lipolysis inhibitory activity of the compounds prepared in the present invention on differentiated mature 3T3-L1 preadipocytes was measured.
5 In adipocytes, FABP4 plays the role of a fatty acid chaperone, and gene knockout or drug inhibition of FABP4 can be used to inhibit lipolysis and promote lipid production in adipocytes. Therefore, the lipolysis experiment can be used as a confirmation indicator of the FABP4 inhibitory activity of the compound. In this experiment, the lipolysis activity of the compounds was evaluated by measuring the effect of the compounds prepared in the present 10 invention on the glycerol content of the supernatant of mature adipocytes.
Experimental materials: 3T3-L1 preadipocytes; calf serum, fetal bovine serum, high glucose H-DMEM culture medium, 3-isobutyl-1-methylxanthine (IBMX), dexamethasone, insulin, Forskolin, glycerol determination kit, BCA protein concentration determination kit.
1. 3T3-L1 preadipocytes were inoculated on culture plates and cultured in high-glucose DMEM containing 10% calf serum in a 37° C., 5% CO2 incubator;
2. After the cells were fully grown, contact inhibition was performed for two days;
3. […]
6. The cell supernatant was collected to measure the glycerol content, the intracellular protein concentration was measured by BCA method for calibration, and finally Graphpad Prism was used to analyze the results.

[2] = test system: MCP-1 secretion in THP-1 cells; assay: MCP-1 secretion in LPS-stimulated THP-1 monocyte-derived macrophages (ELISA); assay type: cell-based; details: FIG. 2; for secretion of inflammatory factor MCP-1 in THP-1 mononuclear macrophages: 25 μM, 10 μM and 5 μM, 18 h incubation, 100 ng/ml LPS 6 h; for MCP-1 reducing activity compared with BMS309403 and RO6806051: THP-1 macrophages, LPS
From the text: as §6, with “FIG. 2A to FIG. 2C,” for “FIG. 3,”, “cell protein: in FIG. 2D, the vertical axis represents the relative concentration of MCP-1 (ng/mg cellular protein % LPS).” for “cell protein.”, “Control” for “Control (Con)”
as §7, §8

prostate cancer cells = details: background statement; cited from earlier work

FABP3, sequence (P05413 whole entry): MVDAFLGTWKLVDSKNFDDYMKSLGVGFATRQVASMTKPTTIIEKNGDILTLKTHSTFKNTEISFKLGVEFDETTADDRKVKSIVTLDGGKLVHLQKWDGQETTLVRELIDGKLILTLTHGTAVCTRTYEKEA

For `O=C(O)c1c(-c2ccccc2)c2cc(Cl)ccc2c(=O)n1CC1CCCCC1` [Compound Y2, 6-Chloro-2-(cyclohexylmethyl)-1-oxo-4-phenyl-1,2-dihydroisoquinoline-3-carboxylic Acid], the inhibition at 25 µM (FABP3) was 48%, the “IL-6 secretion, tendency (no concentration stated)” value [1] was “tendency to reduce IL-6 secretion but with no statistical difference” and the inhibition at 25 µM (FABP5) was 73%. The inhibition at 25 µM (Human FABP4) was 93%, the “glycerol content of the supernatant under FSK (forskolin) stimulation” value (3T3-L1 cells) was “significantly reduce the glycerol content” and the “secretion of inflammatory factor MCP-1 in THP-1 mononuclear macrophages” value [2] was “could reduce the secretion of inflammatory factor MCP-1”. For the same compound, the “MCP-1 reducing activity compared with BMS309403 and RO6806051” value [2] was “better than those of the positive control FABP4 inhibitor BMS309403 and the lead compound RO6806051”.
For `CCc1c(-c2ccccc2)c(-c2ccccc2)nn1-c1ccccc1-c1cccc(OCC(=O)O)c1` [BMS309403], the “effect on prostate cancer cell proliferation, metastasis and apoptosis” value (prostate cancer cells) is given as “inhibit cell proliferation and metastasis and promote cell apoptosis”.
In the case of `O=C(O)c1c(-c2ccccc2)c2cc(Cl)ccc2c(=O)n1C1CCCC1` [Compound Y3, 6-Chloro-2-cyclopentyl-1-oxo-4-phenyl-1,2-dihydroisoquinoline-3-carboxylic Acid], the inhibition at 25 µM (FABP3) is reported as 36%, the “IL-6 secretion, tendency (no concentration stated)” value [1] is reported as “tendency to reduce IL-6 secretion but with no statistical difference” and the inhibition at 25 µM (FABP5) is reported as 68%. The inhibition at 25 µM (Human FABP4) was 93%, the “glycerol content of the supernatant under FSK (forskolin) stimulation” value (3T3-L1 cells) was “significantly reduce the glycerol content” and the “secretion of inflammatory factor MCP-1 in THP-1 mononuclear macrophages” value [2] was “could reduce the secretion of inflammatory factor MCP-1”. For the same compound, the “MCP-1 reducing activity compared with BMS309403 and RO6806051” value [2] was “better than those of the positive control FABP4 inhibitor BMS309403 and the lead compound RO6806051”.
